Laboratory results: patent US10646490B2, “Thieno- and pyrrolopyrimidine analogues and prodrugs thereof as anticancer agents and methods of use thereof” (UNIVERSITY OF MARYLAND, BALTIMORE COUNTY, priority 2015, dated 2020)
Read-outs that look alike come from different tables or passages of the source.

Assays:
[1] = test system: various cancer cell lines; test: Cancer cell line activity screening, panel; type: cell-based; details: Table 5; read-out: IC50 values as low as
Excerpt: (§1) In order to investigate the PK profile of these compounds, a series of halogenated pyrrolo[3,2-d]pyrimidine compounds was synthesized and first tested for activity in various cancer cell lines followed by a mouse model. […] This indicates a wide variance in activity and toxicity that necessitated the synthesis of a second series of compounds with N5 alkyl substitutions in an effort to slow the rate of metabolism, which was thought to be leading to the toxicity.

MOLM14 = test: Cancer cell line activity screening; type: cell-based
[2] = test system: MIA Pa-Ca-2 pancreatic cancer cells; test: Cancer cell line activity screening; type: cell-based
[3] = Mouse pharmacokinetics, plasma half-life; type: in vivo; details: for t1/2: 10 mg/kg injection
Method: Further, mouse studies on 7 were carried out at The Cancer Center Pharmacology Core (CCPC, Colorado State University) by injection of 10 mg/kg of the compound, followed by euthanization at 15, 30, 60, 90, 120, 240, and 480 minutes. […] Mouse studies on 9 were performed in the same manner.

MDA-MB-231 = test: Cancer cell line activity screening; type: cell-based, human
A549 = test: Cancer cell line activity screening; type: cell-based
[4] = Maximum tolerated dose / toxicity in mice; type: in vivo; details: for MTD: mouse, in vivo
Excerpt: as §1

[5] = Stability in biological media; type: in vitro ADME
[6] = Stability in aqueous buffer; type: physicochemical

SMILES: Clc1nc(Cl)c2[nH]cc(I)c2n1 [Compound 20, 7-iodo-2,4-dichloro pyrrolo[3,2-d]pyrimidine]
- IC50 [1]: ≥ 0.014 µM
- IC50 (MOLM14; Homo sapiens, MOLM-14): 0.55 ± 0.07 µM
- IC50 ([2]; Homo sapiens, MIA PaCa-2): 0.37 ± 0.05 µM
- time to little to no detection in mouse plasma [3]: ≤ 70 min
- t1/2 [3]: 30.7 min
- IC50 (MDA-MB-231; Homo sapiens, MDA-MB-231): 1.2 ± 0.4 µM
- IC50 (A549; Homo sapiens, A549): 1 ± 0.1 µM
- MTD ([4]; mice): 5 to 40 mg/kg

SMILES: Cc1ccc(S(=O)(=O)n2cc(I)c3nc(Cl)nc(Cl)c32)cc1 [Compound 9, 2,4-Dichloro-7-iodo-5-tosyl-pyrrolo[3,2-d]pyrimidine]
- time to undetectable in biological media [5]: ≤ 1 hour
- duration stable in aqueous buffer (for up to) [6]: up to 24 hours
- IC50 ([2]; Homo sapiens, MIA PaCa-2): 0.5 ± 0.02 µM
- t1/2 [3]: 32.7 min
- IC50 (MDA-MB-231; Homo sapiens, MDA-MB-231): 0.79 ± 0.04 µM
- maximum tolerated dose (MTD) ([4]; mice): 40 mg/kg
- MTD ([4]; mice): 5 to 40 mg/kg

SMILES: Clc1nc(Cl)c2[nH]ccc2n1 [Compound 19, 2,4-Dichloropyrrolo[3,2-d]pyrimidine]
- IC50 (MOLM14): 9.5 ± 3.1 µM
- IC50 [2]: 5.3 ± 1 µM
- IC50 (MDA-MB-231): 9.7 ± 9.7 µM
- IC50 (A549): 14.5 ± 3.5 µM

SMILES: Clc1nc(Cl)c2c(n1)c(I)cn2COCc1ccccc1 [Compound 8, 5-((Benzyloxy)methyl)-2,4-dichloro-7-iodo-pyrrolo[3,2-d]pyrimidine]
- IC50 ([2]; Homo sapiens, MIA PaCa-2): 7.3 ± 0.8 µM
- IC50 (MDA-MB-231; Homo sapiens, MDA-MB-231): 6.1 ± 0.4 µM

SMILES: Clc1nc(Cl)c2[nH]cc(Br)c2n1 [Compound 6]
- IC50 [1]: ≥ 0.014 µM
- IC50 (MOLM14; Homo sapiens, MOLM-14): 0.023 ± 0.004 µM
- IC50 ([2]; Homo sapiens, MIA PaCa-2): 0.014 ± 0.001 µM
- IC50 (MDA-MB-231; Homo sapiens, MDA-MB-231): 0.4 ± 0.3 µM
- IC50 (A549; Homo sapiens, A549): 0.05 ± 0.02 µM
- MTD ([4]; mice): 5 to 40 mg/kg
- toxicity higher than 7 ([4]; vs 7): 2 fold
